We go through 8 molecules from PubChem BioAssay (NCI).

Some test systems named below: DMS 273 small cell lung; LXFL 529 NSCLC; DMS 114 small cell lung; M19-MEL melanoma; DLD-1 colon; SNB-78 CNS; P388/ADR leukemia; SN12K1 renal; P388 leukemia; XF 498 CNS; HOP-18 NSCLC; RXF-631 renal.
What all share (test): NCI tumour cell line growth inhibition, 48 h

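A five-concentration, 48-hour dose response in 96-well plates underlies each endpoint, interpolated linearly between surrounding concentrations. At the GI50, growth is halved. TGI: concentration producing complete growth inhibition.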 A value given as a limit tells only on which side of the number the result lay.

As to `Nc1nc(SCc2ccccc2Cl)c2[nH]cnc2n1`, the TGI in the assay with DMS 273 small cell lung, in the assay on LXFL 529 NSCLC, in the assay with DMS 114 small cell lung, in the assay with M19-MEL melanoma, in the assay with DLD-1 colon and in the assay with SNB-78 CNS was greater than 100 µM throughout.
`Cc1c2ccc3ccccc3c2c[n+]2ccccc12`: the TGI in the assay on DMS 273 small cell lung is greater than 50.2 µM; with LXFL 529 NSCLC it was 24.2 µM; in the assay with DMS 114 small cell lung, 20.7 µM; with M19-MEL melanoma, 15.9 µM; with DLD-1 colon, greater than 100 µM; in the assay with SNB-78 CNS, greater than 100 µM.
Take `CCCC(=O)[O-].CCCC(=O)[O-].NCCN.NCCN.[Co+3].[O-][Cl+3]([O-])([O-])[O-]`: the GI50 in the assay on LXFL 529 NSCLC, in the assay with DLD-1 colon and with SNB-78 CNS was greater than 100 µM each time. Besides, the TGI with LXFL 529 NSCLC, in the assay on DLD-1 colon and with SNB-78 CNS was greater than 100 µM each time.
For the molecule `COc1ccc(C2COc3c(ccc(O)c3C)C2)cc1OC` (centres undefined), the TGI was 199 µM with DMS 273 small cell lung; greater than 113 µM in the assay on P388/ADR leukemia; 154 µM in the assay on SN12K1 renal; greater than 125 µM in the assay on P388 leukemia; 196 µM in the assay with DMS 114 small cell lung; greater than 200 µM with M19-MEL melanoma. Also, the TGI in the assay with DLD-1 colon was greater than 200 µM; with XF 498 CNS, 124 µM; with SNB-78 CNS, greater than 200 µM; in the assay on HOP-18 NSCLC, 30.8 µM.
Regarding `CN(C)CCCNc1ccc2ncn3c4ccc(O)cc4c(=O)c1c23`, the TGI in the assay with DMS 273 small cell lung turned out to be 12.1 µM; in the assay on LXFL 529 NSCLC, 17.7 µM; with DMS 114 small cell lung, 16.7 µM; in the assay on M19-MEL melanoma it was 15.3 µM; in the assay with DLD-1 colon it was 16.5 µM; in the assay on RXF-631 renal it was 12.2 µM. For the same molecule, the TGI was 19.6 µM in the assay on XF 498 CNS, 26.6 µM in the assay with SNB-78 CNS and 27.4 µM in the assay on HOP-18 NSCLC.
On to `C[n+]1c2ccccc2c(NC(CCCN=C(N)N)C(=O)O)c2ccccc21` (centres undefined), for which the TGI in the assay on DMS 273 small cell lung, in the assay with LXFL 529 NSCLC, in the assay with DMS 114 small cell lung, with M19-MEL melanoma, in the assay on DLD-1 colon and in the assay on XF 498 CNS was greater than 100 µM each time. Further, the TGI with SNB-78 CNS and in the assay with HOP-18 NSCLC was greater than 100 µM throughout.
Regarding `COc1ccc(/C=N/n2cnc3c(c2=O)SC(=C(C#N)C#N)N3c2ccccc2)cc1`, the TGI in the assay on LXFL 529 NSCLC, in the assay with M19-MEL melanoma, in the assay with DLD-1 colon and in the assay with HOP-18 NSCLC was greater than 100 µM in each case.
As to `C=CCCC1(C)CCCNC1=S` (centres undefined), the TGI in the assay with DMS 273 small cell lung, in the assay with DMS 114 small cell lung, with DLD-1 colon, with XF 498 CNS and with HOP-18 NSCLC was greater than 100 µM in each case.
